Converted amounts (≈) assume the structure as drawn. The source made the active and inactive calls. The rule behind the calls is not given here.
Key:
Candida albicans [1] = assay: Antifungal activity against Candida albicans SC5314FR assessed as fractional inhibitory concentration index incubated for 24 hrs in presence of fluconazole by microdilution method; format: functional
Candida albicans [2] = assay: Antifungal activity against Candida albicans SC5314 assessed as fractional inhibitory concentration index incubated for 24 hrs in presence of fluconazole by microdilution method; format: functional
Candida albicans [3] = assay: Antifungal activity against Candida albicans SC5314 incubated for 24 hrs by microdilution method; format: functional
Candida albicans [4] = assay: Antifungal activity against Candida albicans SC5314 incubated for 24 hrs in presence of fluconazole by microdilution method; format: functional
Candida albicans [5] = assay: Antifungal activity against Candida albicans SC5314FR incubated for 24 hrs by microdilution method; format: functional
Candida albicans [6] = assay: Antifungal activity against Candida albicans SC5314FR incubated for 24 hrs in presence of fluconazole by microdilution method; format: functional, SC5314
Candida albicans [7] = assay: Antibiofilm activity against Candida albicans SC5314 assessed as inhibition of biofilm formation at 0.3 ug/mL incubated for 24 hrs by crystal violet staining based inverted microscopy analysis; format: functional, organism-based; details: dose 0.3 µg/ml
Candida albicans [8] = assay: Induction of cell membrane permeability in Candida albicans SC5314 at 0.3 ug/mL incubated for 16 hrs by […] iodide staining based fluorescence microscopy; format: functional, organism-based; details: dose 0.3 µg/ml
[9] = molecular target: T1, Lanosterol 14-alpha demethylase (Candida albicans (strain SC5314 / ATCC MYA-2876) (Yeast), UniProt P10613); assay: Inhibition of CYP51 in Candida albicans SC5314 assessed as reduction in ergosterol content at 0.3 ug/mL incubated for 16 hrs by spectrophotometry analysis; details: at 0.3 µg/mL
Candida albicans [10] = assay: Induction of morphological changes in Candida albicans SC5314 assessed as appearance of slightly blurred cytoplasm at 0.3 ug/ml incubated for 16 hrs by TEM analysis; format: functional, organism-based; details: dose 0.3 µg/ml
Candida albicans [11] = assay: Antibiofilm activity against Candida albicans SC5314 assessed as inhibition of biofilm formation at 0.15 to 0.6 ug/mL incubated for 24 hrs by crystal violet staining based inverted microscopy analysis; format: functional, organism-based; details: dose 0.15-0.6 µg/ml
Candida albicans [12] = assay: Induction of cell membrane permeability in Candida albicans SC5314 at 0.15 to 0.6 ug/mL incubated for 16 hrs by […] iodide staining based fluorescence microscopy; format: functional, organism-based; details: dose 0.15-0.6 µg/ml
[13] = molecular target: T1, Lanosterol 14-alpha demethylase; assay: Inhibition of CYP51 in Candida albicans SC5314 assessed as reduction in ergosterol content at 0.15 to 0.6 ug/mL incubated for 16 hrs by spectrophotometry analysis; details: at 0.15 to 0.6 µg/mL, dose 0.15-0.6 µg/ml
Candida albicans [14] = assay: Induction of morphological changes in Candida albicans SC5314 assessed as appearance of incomplete cell wall structure incubated for 16 hrs by TEM analysis; format: functional, organism-based; details: dose 0.15-0.6 µg/ml
Candida albicans [15] = assay: Induction of morphological changes in Candida albicans SC5314 assessed as appearance of obvious defects incubated for 16 hrs by TEM analysis; format: functional, organism-based; details: dose 0.15-0.6 µg/ml
Candida albicans [16] = assay: Induction of morphological changes in Candida albicans SC5314 assessed as appearance of blurred boundary between cell wall and cell membrane incubated for 16 hrs by TEM analysis; format: functional, organism-based; details: dose 0.15-0.6 µg/ml
Candida albicans [17] = assay: Induction of morphological changes in Candida albicans SC5314 assessed as appearance of unclear cell membrane outline incubated for 16 hrs by TEM analysis; format: functional, organism-based; details: dose 0.15-0.6 µg/ml
Candida albicans [18] = assay: Induction of morphological changes in Candida albicans SC5314 assessed as chaotic dissolution of cytoplasm incubated for 16 hrs by TEM analysis; format: functional, organism-based; details: dose 0.15-0.6 µg/ml
Candida albicans [19] = assay: Induction of morphological changes in Candida albicans SC5314 assessed as chaotic dissolution of vacuoles incubated for 16 hrs by TEM analysis; format: functional, organism-based; details: dose 0.15-0.6 µg/ml
Candida albicans [20] = assay: Induction of morphological changes in Candida albicans SC5314 assessed as appearance of broken slag-like material incubated for 16 hrs by TEM analysis; format: functional, organism-based; details: dose 0.15-0.6 µg/ml
Candida albicans [21] = assay: Induction of morphological changes in Candida albicans SC5314 assessed as leaking of intracellular substances incubated for 16 hrs by TEM analysis; format: functional, organism-based; details: dose 0.15-0.6 µg/ml
Candida albicans [22] = assay: Antibiofilm activity against Candida albicans SC5314 assessed as inhibition of biofilm formation at 0.3 ug/mL incubated for 24 hrs in presence of fluconazole by crystal violet staining based inverted microscopy analysis; format: functional, organism-based; details: dose 0.3 µg/ml
Candida albicans [23] = assay: Induction of morphological changes in Candida albicans SC5314 assessed as appearance of loose texture incubated for 16 hrs by TEM analysis; format: functional, organism-based; details: dose 0.15-0.6 µg/ml

T1 sequence (P10613 whole entry): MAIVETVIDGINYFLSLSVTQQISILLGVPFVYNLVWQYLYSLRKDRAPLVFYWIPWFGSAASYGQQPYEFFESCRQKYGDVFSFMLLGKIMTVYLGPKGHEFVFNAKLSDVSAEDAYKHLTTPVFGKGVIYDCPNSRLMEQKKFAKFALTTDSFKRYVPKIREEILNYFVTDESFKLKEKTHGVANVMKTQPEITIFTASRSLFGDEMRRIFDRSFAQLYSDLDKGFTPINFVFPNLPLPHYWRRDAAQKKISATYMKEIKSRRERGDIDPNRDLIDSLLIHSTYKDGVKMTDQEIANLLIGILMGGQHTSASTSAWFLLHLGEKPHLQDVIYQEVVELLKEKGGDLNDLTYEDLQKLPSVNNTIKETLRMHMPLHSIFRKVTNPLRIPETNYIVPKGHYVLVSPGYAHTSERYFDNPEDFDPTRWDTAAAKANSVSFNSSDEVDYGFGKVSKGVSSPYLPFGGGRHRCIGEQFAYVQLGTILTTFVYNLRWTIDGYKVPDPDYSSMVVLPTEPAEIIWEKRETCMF

Row | Compound | fractional inhibitory concentration index (FICI) (Candida albicans [1]) | fractional inhibitory concentration index (FICI) (Candida albicans [2]) | MIC50 (Candida albicans [3]) [mg/L] | MIC50 (Candida albicans [4]) [mg/L] | MIC50 (Candida albicans [5]) [mg/L] | MIC50 (Candida albicans [6]) [mg/L] | other results
1 | CC(=O)N1CCN(c2ccc(OCCN(CC(O)(Cn3cncn3)c3ccc(F)cc3F)S(=O)(=O)c3ccc(Br)cc3)cc2)CC1 (stereo unspecified) | 2 | 0.22 | 0.2 (≈ 0.278 µM) | 0.04 | > 200 | > 200 | 
2 | CC(=O)N1CCN(c2ccc(OCCN(Cc3ccc([N+](=O)[O-])cc3)CC(O)(Cn3cncn3)c3ccc(F)cc3F)cc2)CC1 (stereo unspecified) | 2 | 0.03 | 0.08 (≈ 0.126 µM) | 0.002 | > 200 | > 200 | 
3 | C#CCN(CCOc1ccc(N2CCN(C(C)=O)CC2)cc1)CC(O)(Cn1cncn1)c1ccc(F)cc1F (stereo unspecified) | 2 | 2.27 | 9.31 (≈ 17.3 µM) | 3.42 | > 200 | > 200 | 
4 | OC(Cn1cncn1)(Cn1cncn1)c1ccc(F)cc1F [FLUCONAZOLE] |  |  | 1.8 (≈ 5.88 µM) |  | > 200 |  | inhibition (Candida albicans [7]): inactive; Activity (Candida albicans [8]): inactive; inhibition (INH) [9]: Not Active; Activity (Candida albicans [10]): Active
5 | CC(=O)N1CCN(c2ccc(OCCN(Cc3ccc(Cl)cc3)CC(O)(Cn3cncn3)c3ccc(F)cc3F)cc2)CC1 (stereo unspecified) | 2 | 3.88 | 9.32 (≈ 14.9 µM) | 5.85 | > 200 | > 200 | 
6 | CC(=O)N1CCN(c2ccc(OCCN(Cc3ccc(C#N)cc3)CC(O)(Cn3cncn3)c3ccc(F)cc3F)cc2)CC1 (stereo unspecified) | 2 | 1.08 | 0.99 (≈ 1.61 µM) | 0.68 | > 200 | > 200 | 
7 | CC(=O)N1CCN(c2ccc(OCCN(CC(O)(Cn3cncn3)c3ccc(F)cc3F)S(=O)(=O)c3ccc(Cl)cc3Cl)cc2)CC1 (stereo unspecified) | 2 | 4.55 | 0.02 (≈ 0.0282 µM) | 0.09 | > 200 | > 200 | inhibition (Candida albicans [11]): Active; Activity (Candida albicans [12]): Active; inhibition (INH) [13]: Active; Activity (Candida albicans [14]): Dose-Dependent Effect; Activity (Candida albicans [15]): Dose-Dependent Effect; Activity (Candida albicans [16]): Dose-Dependent Effect; Activity (Candida albicans [17]): Dose-Dependent Effect; Activity (Candida albicans [18]): Dose-Dependent Effect; Activity (Candida albicans [19]): Dose-Dependent Effect; Activity (Candida albicans [20]): Dose-Dependent Effect; Activity (Candida albicans [21]): Dose-Dependent Effect; inhibition (Candida albicans [22]): Active; Activity (Candida albicans [23]): Dose-Dependent Effect
8 | COc1ccc(C(=O)CN(CCOc2ccc(N3CCN(C(C)=O)CC3)cc2)CC(O)(Cn2cncn2)c2ccc(F)cc2F)cc1OC (stereo unspecified) | 2 | 0.71 | 35 (≈ 51.5 µM) | 1.22 | > 200 | > 200 | 
9 | CC(=O)N1CCN(c2ccc(OCCN(Cc3ccc(C(F)(F)F)cc3)CC(O)(Cn3cncn3)c3ccc(F)cc3F)cc2)CC1 (stereo unspecified) | 2 | 1.94 | 1.83 (≈ 2.78 µM) | 1.76 | > 200 | > 200 | 
10 | CC(=O)N1CCN(c2ccc(OCCN(CC(O)(Cn3cncn3)c3ccc(F)cc3F)S(=O)(=O)c3ccc(Cl)cc3)cc2)CC1 (stereo unspecified) | 13.42 | 2.61 | 8.49 (≈ 12.6 µM) | 3.88 | 33.2 (≈ 49.2 µM) | > 200 | 
11 | COc1ccc(S(=O)(=O)N(CCOc2ccc(N3CCN(C(C)=O)CC3)cc2)CC(O)(Cn2cncn2)c2ccc(F)cc2F)cc1 (stereo unspecified) | 2 | 0.5 | 7.27 (≈ 10.8 µM) | 0.72 | > 200 | > 200 | 
12 | CC(=O)N1CCN(c2ccc(OCCN(Cc3ccc(F)c(F)c3)CC(O)(Cn3cncn3)c3ccc(F)cc3F)cc2)CC1 (stereo unspecified) | 2 | 4.61 | 4.31 (≈ 6.88 µM) | 5.85 | > 200 | > 200 | 
13 | C=CCN(CCOc1ccc(N2CCN(C(C)=O)CC2)cc1)CC(O)(Cn1cncn1)c1ccc(F)cc1F (stereo unspecified) | 1.07 | 1.51 | 7.13 (≈ 13.2 µM) | 2.17 | 115 (≈ 213 µM) | 95.7 | 
14 | CC(=O)N1CCN(c2ccc(OCCN(CC(O)(Cn3cncn3)c3ccc(F)cc3F)C(=O)c3c(Cl)cccc3Cl)cc2)CC1 (stereo unspecified) | 2 | 0.4 | 6.25 (≈ 9.28 µM) | 0.56 | > 200 | > 200 | 
15 | CC(=O)N1CCN(c2ccc(OCCN(CC(O)(Cn3cncn3)c3ccc(F)cc3F)C(=O)c3ccccc3Cl)cc2)CC1 (stereo unspecified) | 2 | 1.61 | 11.3 (≈ 17.8 µM) | 2.5 | > 200 | > 200 | 
16 | CC(=O)N1CCN(c2ccc(OCCN(CC(O)(Cn3cncn3)c3ccc(F)cc3F)C(=O)CCCl)cc2)CC1 (stereo unspecified) | 0.95 | 1.11 | 19.4 (≈ 32.9 µM) | 1.83 | > 200 | 190 | 
17 | CC(=O)N1CCN(c2ccc(OCCN(Cc3ccc(Br)cc3)CC(O)(Cn3cncn3)c3ccc(F)cc3F)cc2)CC1 (stereo unspecified) | 2 | 1.58 | 5.71 (≈ 8.53 µM) | 2.17 | > 200 | > 200 | 
18 | CC(=O)N1CCN(c2ccc(OCCN(CC(O)(Cn3cncn3)c3ccc(F)cc3F)C(=O)c3ccc(C(F)(F)F)cc3)cc2)CC1 (stereo unspecified) | 2 | 2.03 | 17.9 (≈ 26.6 µM) | 3.32 | > 200 | > 200 | 
19 | CC(=O)N1CCN(c2ccc(OCCN(CC(O)(Cn3cncn3)c3ccc(F)cc3F)C(=O)c3cc(F)c(F)c(F)c3F)cc2)CC1 (stereo unspecified) | 2 | 0.53 | 0.31 (≈ 0.458 µM) | 0.14 | > 200 | > 200 | 
20 | CC(=O)N1CCN(c2ccc(OCCN(CC(O)(Cn3cncn3)c3ccc(F)cc3F)S(=O)(=O)c3ccc(F)cc3)cc2)CC1 (stereo unspecified) | 2 | 1.69 | 0.1 (≈ 0.152 µM) | 0.16 | > 200 | > 200 | 
21 | CC(=O)N1CCN(c2ccc(OCCN(CC(O)(Cn3cncn3)c3ccc(F)cc3F)S(=O)(=O)CCCCl)cc2)CC1 (stereo unspecified) | 2 | 0.33 | 0.66 (≈ 1.03 µM) | 0.16 | > 200 | > 200 | 
22 | CC(=O)N1CCN(c2ccc(OCCN(CC(O)(Cn3cncn3)c3ccc(F)cc3F)S(=O)(=O)c3ccc(OC(F)(F)F)cc3)cc2)CC1 (stereo unspecified) | 2 | 0.45 | 0.84 (≈ 1.16 µM) | 0.26 | > 200 | > 200 | 
23 | CC(=O)N1CCN(c2ccc(OCCN(CC(O)(Cn3cncn3)c3ccc(F)cc3F)C(=O)c3ccc(Cl)cc3)cc2)CC1 (stereo unspecified) | 0.73 | 0.64 | 6.79 (≈ 10.6 µM) | 0.91 | > 200 | 147 | 

Reference: ChEMBL document CHEMBL5370634, “Synthesis and Antifungal Evaluation of New Azole Derivatives against Candida albicans” (ACS Med Chem Lett, 2023)
